According to article PMC9643865, “Bromo-protopine, a novel protopine derivative, alleviates tau pathology by activating chaperone-mediated autophagy for Alzheimer’s disease therapy” (Frontiers in Molecular Biosciences, 2022):
Like-named read-outs stand apart in the source and are kept apart here.

How the values were obtained:
[1] = Pharmacokinetic study in brain and plasma after oral dosing, LC-MS/MS; assay type: in vivo, ICR mice
Procedure: To determine the amount of PRO-Br in the brain, a pharmacokinetic study was performed employing 3-month-old female ICR mice (n = 6, 30 ± 2 g). PRO-Br (10 mg/kg b. wt) was injected orally. Brain tissues and blood samples (intracardial) were collected at various time-points (0, 15, 30, 45, 60, 75, 120, 240, 360, 480 min). Brain tissues and plasma samples were kept at −80°C until analysis. On the day of analysing the samples, the brain tissues were thawed on ice and half brain tissue was taken for analysis. To 200 mg of tissue, 4 times the volume of methanol (100%) was added, and homogenized until a clear solution was observed. The samples were centrifuged at 15,000 RPM for 10 min at 4°C. The supernatant was separated and analyzed using LC-MS/MS.
Quantification of PRO-Br in mice brains was performed by Agilent 6410 LC-ESI-Triple-Quad/TOF. The mobile phase (A) consisted of water with 0.1% formic acid, and the mobile phase (B) consisted of acetonitrile with 0.1% formic acid (B). C18 column was used to elute the desired solutes, based on the protocol: 0–5 min, 23–50% B; 5–15 min, 50–60% B; 15–15.01 min, 60–95% B; 15.01–22 min, 95% B. The ions of PRO-Br were detected in positive ionization mode. Multiple reaction monitoring (MRM) mode was used to monitor the analytes of PRO-Br.

SHSYP301L cells = assay: Immunoblotting of tau, Ac-α-tubulin and chaperones in tau-overexpressing cells; assay type: cell-based
Procedure: (§1) SHSY5Y cells stably-expressing mutant tau (SHSYP301L) were cultured in DMEM/F12 + 15% FBS, 3 μg/ml Blasticidin S HCl, and 1X PSN. N2A mouse neuroblastoma and mouse hippocampal neuronal (HT22) cells were cultured in DMEM+10% FBS, and 1X PSN. Sterile complete medium containing PRO-Br was added to the cells, and they were then incubated for 24 h at an optimum temperature of 37°C in a sterile 5% CO2 incubator.
(§2) After PRO-Br treatment, cells were solubilised using cold RIPA lysis buffer (9803, Life Technologies), containing protease and phosphatase inhibitor tablets. Cells were sonicated and centrifuged at 14000 rpm for 15 min. Total protein concentration was determined by BCA protein assay, and the samples were separated on SDS-PAGE and transferred to PVDF membranes. The membranes were blocked, washed, and incubated with primary antibodies (Table 1), and incubated at 4°C, overnight. The membranes were further incubated with the required dilutions of secondary antibody for 1 h, at RT. The chemiluminescent signals were captured using x-ray film in a darkroom, with an appropriate chemiluminescent substrate kit (ThermoFisher Scientific, United States). Films were scanned, and the relative intensities of the signals were analyzed using ImageJ software.

P301S mice [2] = assay: Rotarod test; assay type: in vivo; conditions: oral, 2.5 months, vs Tg-Vehicle
Procedure: (§3) Female homozygous P301S mice bearing the transgene for MAPT (P301S), were generous gifts from Michael Goedert. P301S-tau mice (1.5-month-old, n = 8) were administered with PRO-Br daily for 2.5 months. The mice models employed in the study were maintained under 12 h light-dark cycles and were provided ad libitum access to chow and water.
Motor behavior was assessed by the rotarod test (Harvard apparatus, SeDaCom v2.0.000) and was performed according to the procedure described previously ([Song et al., 2020]). The study mice were brought into the experimental room 30 min before the test. The training was conducted with a constant speed of 4, 8, and 12 rpm on days 1, 2, and 3, respectively. Three trials were conducted each day and the performance was monitored. On the fourth day, an acceleration mode (4–40 rpm in 5 min) was introduced, and the time spent (s) by each mouse on the rod was recorded by the instrument connected to a computer.

P301S mice [3] = assay: Contextual fear conditioning test; assay type: in vivo; conditions: oral, 2.5 months
Procedure: as §3
After treating P301S mice with PRO-Br, fear memory consolidation was evaluated by the contextual fear conditioning (CFC) test. The experimental set-up consisted of two individual sound-proof chambers, each having an electric grid on the surface. Inside each chamber, a speaker was attached to introduce a cue tone. The movement of the mice was observed and recorded by ANY maze tracking software on a laptop. The experiment was performed with a continuous white noise (40 units) and white light (40 lux). On the first day of the training session, mice were introduced into the chamber and permitted to explore for 2.5 min. Next, each mouse received three consecutive foot shock cycles; each started with a 28 s cue tone (1,500 Hz) and finished with a 2 s foot shock ([…]). On the second day, the mice were allowed to explore the grid for 3 min, after which they received a cue tone for 30 s without foot shock, and the freezing time was recorded.

HT22 cells = assay: LAMP2A / HSC70 immunocytochemistry and immunoblotting; assay type: cell-based, mouse
Procedure: as §1, §2
HT22 cells were cultured in sterile 24-well culture dishes containing 14 mm cover-glass. Cells were treated with PRO-Br (12.5 and 25 μM), and DMSO (0.1%), for 24 h. Cells were fixed with paraformaldehyde (4%), permeabilized with triton-X-100 (0.1%), and blocked with BSA (2%). LAMP2A antibody (1:500), and HSC70 antibody (1:500) was added to the processed cells and incubated overnight at four°C. Alexa Fluor® 488 (green) and Alexa Fluor® 594 (red) secondary antibodies (1:400) were added and incubated for 1.5 h at room temperature. FluorSave reagent (Merck Millipore, United States) was added, then cover-slipped, and images were captured by a Leica confocal imaging system.

With `CN1CCc2cc3c(cc2C(=O)Cc2c(Br)cc4c(c2C1)OCO4)OCO3` [PRO-Br, bromo-protopine] the “time retained in the brain” value ([1]; 10 mg/kg oral, female ICR mice, brain) was 4.2 h, the brain penetrating efficacy ([1]; compared to PRO) was “superior compared to its parent compound” and the Kp ([1]; mouse, brain, 10 mg/kg oral, female ICR mice, read-out: brain/plasma ratio) was 8.08. The Cmax ([1]; mouse, 10 mg/kg oral, female ICR mice, brain, read-out: maximum concentration (Cmax) in the brain) was 425 ng/g, the Tmax ([1]; mouse, 10 mg/kg oral, female ICR mice, brain, read-out: maximum time (Tmax) in the brain (converted)) was 30 min and the Cmax ([1]; mouse, 10 mg/kg oral, female ICR mice, plasma, read-out: Cmax in the plasma) was 91.9 ng/mL. For the same molecule, the Tmax ([1]; mouse, 10 mg/kg oral, female ICR mice, plasma, read-out: Tmax in the plasma (converted)) was 15 min, the “PHF1 and TAU5 levels” value (SHSYP301L cells; 24 h) was “simultaneously reducing PHF1 and TAU5 levels” and the “expression of HSP70” value (SHSYP301L cells; 24 h) was “significantly and dose-dependently augmented the expression of HSP70”. For the same molecule, the “acetylation of α-tubulin” value (SHSYP301L cells; compared to PRO) was “enhanced the acetylation of α-tubulin”, the “PHF1 degradation on co-treatment with CMA/lysosomal protease inhibitors E64D and pepstatin” value (SHSYP301L cells; compared to PRO-Br treatment alone) was “significantly blocked the degradation of PHF1 levels” and the tau/PHF1-reducing activity (SHSYP301L cells; preliminary screening) was “good tau/PHF1-reducing activity”. For the same molecule, the “PHF1 degradation on co-treatment with MG132, Wortmannin or Chloroquine” value (SHSYP301L cells; proteasome, autophagy or lysosome inhibitor co-treatment) was “did not block PRO-Br-mediated PHF1 degradation”, the “latency of falling (rotarod)” value (P301S mice [2]) was “latency of falling was significantly enhanced” and the “freezing percentage (CFC)” value (P301S mice [3]) was “significant increase in freezing percentage”. The “expression of LAMP2A” value (HT22 cells; immunocytochemistry, 12.5 and 25 μM, 24 h) was “distinctly enhanced the expression of LAMP2A in a dose-dependent manner” and the “interaction between HSC70 and LAMP2A” value (HT22 cells; immunofluorescence) was “markedly enhanced the interaction between HSC70 and LAMP2A”.
